Measured values taken from patent US7521464B2, “Pyrazole compounds for treatment of neurodegenerative disorders” (Pfizer Inc., priority 2002, dated 2009).

System: gamma-secretase
Experiment: gamma-secretase activity in a solubilized membrane preparation (cell-free assay per McLendon et al.)
Assay type: biochemical
Details: read-out: IC50 activity for inhibiting gamma-secretase activity
Method: The activity of compounds of the invention in inhibiting gamma-secretase activity was determined in a solubilized membrane preparation generally according to the description provided in McLendon et al. Cell-free assays for γ-secretase activity, The FASEB Journal (Vol. 14, December 2000, pp. 2383-2386).

Compound | IC50 [nM]
O=C(Cc1cc(F)cc(F)c1)NC(C(=O)Nc1cc(-c2ccccc2)n[nH]1)c1ccccc1 (centres unmarked) [Example 84, 2-[2-(3,5-difluoro-phenyl)-acetylamino]-2-phenyl-N-(5-phenyl-2H-pyrazol-3-yl)-acetamide] | ~1000
CCCC(NC(=O)CC(C)CCC=C(C)C)C(=O)Nc1cc(-c2ccccc2)n[nH]1 (centres unmarked) [Example 138, 3,7-Dimethyl-oct-6-enoic acid [1-(5-phenyl-2H-pyrazol-3-ylcarbamoyl)-butyl]-amide] | ~5000
